The text below walks through data of PMC9923724, “Half sandwich-type osmium, ruthenium, iridium and rhodium complexes with bidentate glycosyl heterocyclic ligands induce cytostasis in platinum-resistant ovarian cancer cells and bacteriostasis in Gram-positive multiresistant bacteria” (Frontiers in Chemistry, 2023).

The term LogD denotes lipophilicity at a set pH, counting ionised and neutral species. Read a low LogD as a more hydrophilic compound.

The structures appear in SMILES notation.

For series [1], the system named is 4HNE formation in Staphylococcus aureus reference strain. As to the kind of experiment: Western blot for 4HNE in Staphylococcus aureus reference strain. Type of series: cell-based. As to conditions: at MIC (Ru-7 10 μM, Os-7 20 µM), 15 min, 30 min, 1 h; band ∼50 kDa. As to the method:
(§1) The MIC values of the complexes were determined against the reference strains of S. aureus (ATCC29213) and E. faecalis. (ATCC29212) and against clinical VRE and MRSA isolates by microdilution assays (repeated at least twice in duplicates) as described in Materials and Methods. The numbers indicate how many isolates were susceptible to the compound out of those tested; i.e., 1/6 stands for 1 isolate was susceptible out of 6 tested. […] Cells were harvested and lysed. Cellular proteins was separated on a 10% SDS-PAGE gel and were blotted. Blots were probed with 4HNE antibody (top blot), the lower blot was stained with amido black. Arrows point at band of interest. Experiments were repeated three times and a representative blot is shown. On the blots brightness and contrast were adjusted. […]
(§2) SDS-polyacrylamide gel electrophoresis and Western blot was performed as in ([Márton et al., 2018]) using an antibody against 4HNE (Abcam (ab46545) 1:1000) that was detected using a corresponding peroxidase-conjugated secondary antibody (1:10000, Cell Signaling Technology, Inc., Beverly, MA, United States). […] ECL and amido black pictures were captured using the ChemiDoc Touch Imaging System (Bio-Rad Laboratories, Inc., Hercules, California, United States) and the pictures were evaluated using the Image Lab software (Bio-Rad).
(In general: A western blot detects proteins with antibodies after separation by electrophoresis.)

Series [2] deals with Staphylococcus aureus (ATCC29213). Briefly: Broth microdilution MIC, Staphylococcus aureus reference strain. Type of series: cell-based. Particulars: Staphylococcus aureus ATCC29213, 24 h. As for the experimental part: (§3) The MIC values of the complexes were determined against the reference strains of S. aureus (ATCC29213) and E. faecalis. (ATCC29212) and against clinical VRE and MRSA isolates by microdilution assays (repeated at least twice in duplicates) as described in Materials and Methods. The numbers indicate how many isolates were susceptible to the compound out of those tested; i.e., 1/6 stands for 1 isolate was susceptible out of 6 tested. […] Cells were harvested and lysed. Cellular proteins was separated on a 10% SDS-PAGE gel and were blotted. Blots were probed with 4HNE antibody (top blot), the lower blot was stained with amido black. Arrows point at band of interest. Experiments were repeated three times and a representative blot is shown. On the blots brightness and contrast were adjusted. […] Each was matched to a substance and strain by its position over the x-axis categories. / Ir-7: ND and 0/3 (left plot) and ND and 0/6 (right plot) were matched to E. faecalis/VRE and S. aureus/MRSA by position only.
(§4) We used the reference strains of Staphylococcus aureus (ATCC29213), and Enterococcus faecalis (ATCC29212) that were purchased from ATCC (Manassas, VA, United States).
(§5) Microdilution experiments were performed according to the standards of EUCAST ([EUCAST, 2021]). […] The inoculated plates were incubated for 24 h at 37°C then were assessed visually. […] All experiments were performed at least twice in duplicates.

Series [3] has as its system 4HNE expression in Enterococcus faecalis reference strain. As to the kind of experiment: Western blot for 4HNE in Enterococcus faecalis reference strain. Type of series: cell-based. As to conditions: at MIC (Ru-7 5 μM, Os-7 10 µM), 15 min, 30 min, 1 h; band ∼120 kDa. As for the experimental part: as §1, §2
Series [4] concerns Enterococcus faecalis (ATCC29212). As to the kind of experiment: Broth microdilution MIC, Enterococcus faecalis reference strain. Type of series: cell-based. As to conditions: Enterococcus faecalis ATCC29212, 24 h. As for the experimental part:
as §3, §4, §5

Series [5] is described as follows: Determination of the distribution coefficients (logD). Type of series: physicochemical. As to conditions: distribution coefficient.

Take `Cc1ccc(C(C)C)cc1.F[P-](F)(F)(F)(F)F.O=C(OCC1OC(n2cc(-c3ccc4ccccc4n3)nn2)C(OC(=O)c2ccccc2)C(OC(=O)c2ccccc2)C1OC(=O)c1ccccc1)c1ccccc1.[Cl][Os+]` (mixture of isomers) [Os-7]: the “4HNE formation in Staphylococcus aureus reference strain” value in series [1] is “induced 4HNE formation”. Besides, in series [2], the “MIC, Reference S. aureus” value is 20 µM. In addition, the “4HNE expression in Enterococcus faecalis reference strain” value in series [3] was “induced 4HNE expression”. In addition, the “MIC, Reference E. faecalis” value in series [4] was 10 µM. In series [5], the LogD worked out at 2.33.

In the case of `Cc1ccc(C(C)C)cc1.F[P-](F)(F)(F)(F)F.O=C(OCC1OC(n2cc(-c3ccc4ccccc4n3)nn2)C(OC(=O)c2ccccc2)C(OC(=O)c2ccccc2)C1OC(=O)c1ccccc1)c1ccccc1.[Cl][Ru+]` (mixture of isomers) [Ru-7], in series [1], the “4HNE formation in Staphylococcus aureus reference strain” value is “induced 4HNE formation”. In addition, the “MIC, Reference S. aureus” value in series [2] is on record as 10 µM. Also, in series [3], the “4HNE expression in Enterococcus faecalis reference strain” value was “induced 4HNE expression”. The “MIC, Reference E. faecalis” value in series [4] came to 5 µM.
